According to paper PMC3976407, “Inhibition of Fatty Acid Binding Proteins Elevates Brain Anandamide Levels and Produces Analgesia” (PLoS ONE, 2014):
Like-named read-outs stand apart in the source and are kept apart here.

Columns and labels:
CB1 = system: CB1; parameters: method as in PMID 23236415; details: previously demonstrated ref 31; cited from earlier work
FABP7 = FABP7 (Homo sapiens, UniProt O15540); assay: NBD-stearate fluorescence displacement binding
Method: Inhibitory constant (Ki) values were elucidated utilizing NBD-stearate fluorescence displacement as described previously [9], [31]. The tests were performed in 96-well plates containing inhibitors (0.1 – 50.0 μM), FABP, and NBD-stearate. Fluorescence intensity was measured with a FLUOstar OPTIMA spectrofluorometer with excitation and emission wavelengths of 460 and 544 nm, respectively.

[1] = system: locomotor activity in mice; assay: Locomotor activity; assay type: in vivo, mouse; details: 20 mg/kg, i.p., measured 90 min after administration
Method: […] Locomotor activity was recorded for 5 min by a video camera suspended above the chamber and subsequently scored by an observer blinded to the treatment conditions. A grid crossing was scored when both hind legs of the animal crossed the border of each grid square.

[2] = system: acetic acid-induced writhing in mice; assay: Acetic acid-induced writhing; assay type: in vivo, mouse
Method: Mice were acclimated to the laboratory environment for at least two hours and were habituated to the testing chamber for 30 min prior to acetic acid challenge. SBFI26, SBFI50, SBFI60, and SBFI62 (20 mg/kg) were administered via the subcutaneous route 60 min before acetic acid. Rimonabant, SR144528, GW6471, and naloxone were given 10 min before the inhibitors via the subcutaneous route. The mice subsequently received an i.p. injection of acetic acid (0.6% in sterile saline, 10 μl/g) and were placed in observation chambers. Abdominal stretches (marked by extension of the body and hind limbs) were counted for 20 min starting at 5 min post-injection.

[3] = system: formalin-induced nociception in mice; assay: Formalin test; assay type: in vivo, mouse; details: 20 mg/kg, i.p.
Method: Mice were habituated to the observation chamber (Plexiglas box, 25 cm×25 cm×25 cm) for 30 min prior to formalin injection. Mice were administered FABP inhibitors 60 min prior to formalin. The animals subsequently received an injection of formalin (2.5% in saline, 20 μl) into the plantar surface of the right hind paw using a 30 gauge needle and were immediately placed back into the observation chamber and nocifensive behavior (time spent licking or biting the paw) was recorded for 60 min. Nocifensive behavior was scored during the first phase (0–5 min) and the second phase (∼15–45 min) of the formalin test.

[4] = system: carrageenan-induced thermal hyperalgesia and paw edema in mice; assay: Carrageenan-induced paw edema and thermal hyperalgesia; assay type: in vivo, mouse; details: 20 mg/kg, i.p.
Method: Paw edema was induced by injecting 1% λ-carrageenan (20 μl, in sterile saline) into the plantar surface of the left hind paw using a 30 gauge needle attached to a glass syringe (Hamilton Company). Paw diameters were measured before carrageenan injection and 4 or 24 hours after injection using digital electronic calipers (Fisher) and expressed to the nearest ± 0.01 mm. SBFI26, SBFI50, SBFI60, and SBFI62 were dissolved in DMSO:cremophor-EL:saline (4% DMSO:10% Cremophor-EL) and administered (20 mg/kg, i.p.) 60 min prior to injection of carrageenan. Receptor antagonists were injected 10 min before the inhibitors. Rimonabant and SR144528 (3 mg/kg, i.p.) were dissolved in ethanol:cremophor-EL:saline (1∶1∶18) while GW6471 (4 mg/kg, i.p.) was dissolved in DMSO:cremophor-EL:saline (2% DMSO:5% Cremophor-EL). Edema is reported as the change in paw diameter at 24 hr compared to the baseline. Thermal hyperalgesia was measured using the Hargreaves plantar apparatus (Ugo Basile) as previously reported.

[5] = Pharmacokinetics: SBFI26 levels in plasma and brain; assay type: in vivo; details: mouse, 20 mg/kg, i.p.; for half-life: ip
Method: Mice were injected with SBFI26 (20 mg/kg, i.p.) and were subsequently rapidly euthanized by decapitation at the indicated time points. The brain was rapidly removed and submerged in liquid nitrogen while the blood was collected into a K2-EDTA collection tube (Fisher). Plasma was isolated by centrifugation of the blood and 50 μl of the plasma was combined with 150 μl acetonitrile and centrifuged to remove the resulting protein pellet. Subsequently, 50 μl of water was added to 50 μl of the supernatant and 10 μl was injected for analysis into a Thermo TSQ Quantum Access Triple Quadrupole mass spectrometer (ThermoFisher). LC separation was achieved on a Luna C18 (150×2 mm) column. Mobile phase A consisted of 100% H20 while mobile phase B was composed of 100% acetonitrile. The flow rate was 200 μl/min. A linear gradient was used and started at 50% B for 2 min, then ramped to 100% B in 8 min., with a 2 min hold at 100% B. The system was then equilibrated at 50% B for a cycle time of 20 min. The mass spectrometer was operated in the negative ion mode with the high voltage set at −3.5 kV. The sheath pressure was 20 and the capillary was set to 270 °C. Multiple reaction monitoring (MRM) was used with the transition m/z 421 to 277 at 29 eV as the quantitation channel, while m/z 421 to 205 at 17 eV was employed as a conformation channel. SBFI26 quantification was performed using an external calibration curve.

HeLa cells = assay: Cytotoxicity, MTT colorimetric assay; assay type: cell-based; details: 24 hr incubation, n = 3
Method: Cytotoxicity of the FABP inhibitors SBFI26 and BMS309403 were examined using the MTT [3-(4,5-dimethylthiazol-2-yl)-2,5 diphenyl tetrazolium bromide] colorimetric assay. HeLa cells were seeded into 96-well plates (15,000 cells/well) and incubated for 24 hours at 37°C in DMEM supplemented with 10% FBS, penicillin (100 U/mL) and streptomycin (100 μg/mL). The cells were subsequently washed with PBS and treated with serum-free DMEM containing 10 nM to 1 mM SBFI26, BMS309403, or 5 mM hydrogen peroxide as a positive control. Following a 24 hr incubation, the cells were washed with PBS and treated with MTT (0.5 mg/mL in PBS) for 4 hrs. The cells were subsequently solubilized using DMSO and the absorbance was read at 562 nm in a microplate reader.

Sequence of FABP7 (O15540 whole entry, species assumed): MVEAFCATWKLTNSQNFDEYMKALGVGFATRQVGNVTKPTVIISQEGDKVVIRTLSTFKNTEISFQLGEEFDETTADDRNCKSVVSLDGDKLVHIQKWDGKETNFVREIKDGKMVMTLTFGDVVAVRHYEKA

Which “Activation of CB1” value (CB1) does the source give for O=C(O)C1C(c2ccccc2)C(C(=O)Oc2cccc3ccccc23)C1c1ccccc1 (stereo not drawn) [SBFI26, alpha-2,4-diphenylcyclobutane-1,3-dicarboxylic acid mono-1-naphthyl ester] here?
Its value is “does not activate”.

What about the Ki (FABP7) of the same molecule?
Its Ki is 400 nM.

What about the Locomotor activity [1] of the same molecule?
The Locomotor activity was “does not alter”.

And the “Effect upon acetic acid-induced writhing” value ([2]; 20 mg/kg, subcutaneous, 60 min before acetic acid)?
Its value is “significantly reduced”.

What about the “Antinociceptive effects in the acetic acid test after pretreatment with PPARα antagonist GW6471” value ([2]; GW6471 4 mg/kg) of the same molecule?
The value was “blocked”.

What about the “Antinociceptive effects in the acetic acid test after pretreatment with CB2 antagonist SR144528” value ([2]; SR144528 3 mg/kg) of the same molecule?
The value was “failed to reverse”.

And the “Dose of near maximal efficacy in acetic acid writhing” value ([2]; dose response analysis)?
Its value is 20 mg/kg.

What about the “Antinociceptive effects in the acetic acid test after pretreatment with opioid antagonist naloxone” value ([2]; naloxone 2 mg/kg) of the same molecule?
The value was “failed to reverse”.

And the “Antinociceptive effects in the acetic acid test after pretreatment with CB1 antagonist rimonabant” value ([2]; rimonabant 3 mg/kg 10 min before inhibitor)?
The value was “completely blocked”.

And the “Effect upon first phase of formalin-induced nociception” value ([3]; first phase 0–5 min)?
Its value is “reduced”.

What about the “Effect upon second phase of formalin-induced nociception” value ([3]; second phase ∼15–45 min) of the same molecule?
Its value is “reduced”.

What about the “Effect upon carrageenan-induced paw edema” value [4] of the same molecule?
The value was “reduced”.

And the “Effect upon carrageenan-induced thermal hyperalgesia” value [4]?
Its value is “reduced”.

What about the half-life ([5]; brain, read-out: Brain half-life (converted)) of the same molecule?
The half-life was about 3 h.

What about the “Brain levels relative to plasma levels” value [5] of the same molecule?
Its value is “lower”.

And the “Time of peak brain level” value ([5]; brain)?
The value was “within one hour”.

And the “Time of peak plasma level” value ([5]; plasma)?
The value was “within one hour”.

What about the “Time by which levels return to baseline” value ([5]; plasma and brain) of the same molecule?
The value was at most 24 h.

And the half-life ([5]; plasma, read-out: Plasma half-life (converted))?
Its half-life is about 3 h.

And the “Cytotoxicity _50 values” (HeLa cells)?
Its value is 31.1 ± 4.1 µM.
